Key:
rats [1] = test: Elevated plus maze (EPM) after acute microinjection; type: in vivo; details: versus controls
Text: (§1) This is indicative of less depression-like behavior in FGF2 animals.
(§2) Again, this is an index of less depression-like behavior. This is also in the same direction as the FGF2 data, consistent with the fact that both FGF2 and NCAM interact with the FGF receptor.
(§3) These observations are nevertheless consistent with the conclusions drawn from the microinjection studies above.

rats [2] = test: Forced swim test (FST) after microinjection; type: in vivo; details: versus controls
Text: as §1, §2, §3

Sprague-Dawley rats = test: Morris water maze learning and memory test in adults after early postnatal FGF2; type: in vivo; details: 20 ng/g s.c. the day after birth, tested as adults
Experimental: (§4) Methods. Sprague-Dawley rats were injected with either vehicle or FGF2 (20 ng/g, s.c.) the day after birth and sacrificed after Morris water maze testing as adults. We assessed changes in gene expression using both a candidate approach and a gene discovery approach with laser-capture microdissection of the dentate gyrus followed by microarray analyses.

[3] = system: GAP-43, Rgs4, trkb, CCK, SST, Vgf, NCAM expression; test: Hippocampal (dentate gyrus) gene expression in adult rats after early postnatal FGF2; type: in vivo; details: FGF2 20 ng/g s.c. the day after birth
Experimental: as §4
Results. […] Several genes associated with neural plasticity were also found altered in the adult rats, as shown by histochemical and RNA expression assays. For example, expression of GAP-43, Rgs4, trkb, CCK, SST, and Vgf was increased, while expression of NCAM was decreased.

rats [4] = test: Elevated plus-maze (EPM) and light-dark (LD) anxiety tests after chronic FGF2; type: in vivo; details: 5 ng/g i.p. every 48 hours for 3 weeks
Experimental: Anxiety disorders have a high comorbidity with other neuropsychiatric disorders including Major Depression (MD). […] Rats were placed into “high anxiety” (LR) or “low anxiety” (HR) groups based on their behavior in a variety of motor and behavioral tests. Both groups of animals were administered either FGF2 (5 ng/g) or vehicle by intraperitoneal injection every 48 hours for 3 weeks. One day after the last FGF2 injection, all animals were tested in the elevated plus-maze (EPM) and light-dark (LD) anxiety test.
The apparatus for the EPM test is constructed of black Plexiglass with […] (70 cm from the floor, 45 cm long, and 12 cm wide). Illumination is provided by a 40-watt desk lamp facing a wall and placed behind one of the closed arms. The scientists put the animal inside the system. Animals that are less anxious spend more time in the open arms whereas animals that are more anxious spend less time in the open arms.
The LD test is conducted in a 30×60×30-cm Plexiglas shuttle box with a translucent cover. Each box is divided into two equal-sized compartments by a wall with a 12 cm-wide open door. One compartment is painted white and brightly illuminated, and the other is painted black with very dim light. The time each rat spends in each compartment is monitored by rows of five photocells located 2.5 cm above the grid floor of each compartment. […]

[5] = system: FGFR2 and FGFR3 exon IIIc:IIIb splice variants; test: Real time RT-PCR of exon IIIc:IIIb splice variant ratio in frontal cortex, chronic unpredictable stress; type: in vivo, rats; details: 5 ng/g i.p. every 48 hours for three weeks
Experimental: Animals. Twenty-four male Sprague-Dawley rats weighing 220-250 g were ordered from Charles River (Wilmington, Mass.) and remained undisturbed for one week to acclimatize to housing conditions. The animals were housed in pairs on a 12 h light-dark cycle (lights on 6:00 A.M.) with food and water available ad libitum. All experiments were conducted in accordance with the NIH Guide for the Care and Use of Animals and the University Committee on the Use and Care of Animals.
FGF2 injection treatments and chronic unpredictable stress (CUS) conditions. […]
Total RNA extraction. […] Using the Bioanalyzer's concentration readings, the samples were normalized to 25 ng/μL of total RNA per subject and stored at −80° C.
cDNA synthesis. cDNA was synthesized using the iScript cDNA Synthesis Kit (Bio-Rad, Hercules, Calif.). […] The double-stranded cDNA solutions were then analyzed for quality and concentration using Invitrogen's Quant-iT PicoGreen dsDNA kit. […] The fluorescently labeled samples were analyzed with a 1420 Victor^2 Multilabel Counter (EG&G Wallac, Wellesley, Mass.) using the basic Fluorescein protocol. […]
Real time RT-PCR primer design. […] Exon sequences were analyzed using NCBI's nucleotide and protein BLAST and were matched with their corresponding protein products within the receptor structures (FIG. 11). […]

Row | Substance | time in the center quadrant of EPM (rats [1]) | time in the closed arms of EPM (rats [1]) | time in the open arms of EPM (rats [1]) | immobility in FST (rats [2]) | time on average to find a hidden platform in Morris Water maze test (Sprague-Dawley rats) | performance in learning and memory tests (Sprague-Dawley rats; versus vehicle) | swimming in FST (rats [2]) | expression of CCK [3] | expression of NCAM [3] | expression of Rgs4 [3] | expression of SST [3] | expression of Vgf [3] | expression of trkb [3] | expression of GAP-43 ([3]; histochemical and RNA expression assays) | anxiety versus vehicle animals (rats [4]; tested one day after last injection) | anxiety-reducing effect in innately more anxious (LR) rats (rats [4]; LR versus HR rats) | effect on magnitude of IIIc:IIIb ratio changes caused by stress [5] | effect on exon IIIc:IIIb ratio ([5]; NS or S group, P>0.1) | climbing in FST (rats [2])
1 | EVYVVAENQQGKSKA [NCAM] | significantly less time | more time (although not significantly more time) | less time | less immobility |  |  |  |  |  |  |  |  |  |  |  |  |  |  | 
2 | FGF2: human recombinant FGF2 (Sigma); ligand of the FGF receptor |  | significantly more time | less time | less immobility | 20 s | significantly better | more swimming | increased | decreased | increased | increased | increased | increased | increased | less anxious | clearly more pronounced | nor did it significantly affect | did not alter the IIIc:IIIb ratio significantly | 
3 | HFKDPKRLY [FGF system peptide inhibitor] | significantly more time | less time | equal time | more immobility |  |  | less swimming |  |  |  |  |  |  |  |  |  |  |  | significantly less climbing
